Test results from patent US9302999B2, “Substituted triazoles as herbicides” (E. I. DU PONT DE NEMOURS AND COMPANY, priority 2012, dated 2016).

Legend:
Format in all cases: in vivo
[1] = system: wheat (Triticum aestivum); test: Test A pre-/postemergence: wheat; conditions: for Wheat plant response rating: Postemergence; for Plant response rating, Wheat: Preemergence
In short: (§1)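 Plants in loam–sand blend were treated with test chemicals in non-phytotoxic solvent with surfactant, either as preemergence directed soil spray or postemergence at 2–10 cm, one- to two-leaf stage. After about ten days in greenhouse, injury was rated visually against untreated controls on a 0–100 scale (100 = complete control).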

rice (Oryza sativa) = test: Test B flooded paddy: rice; conditions: Flood; 250 g ai/ha; applied to paddy water at 2-leaf stage; visually evaluated after 13 to 15 days
In short: (§2)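 Each compound is applied to the floodwater of pots holding 2-leaf seedlings, water standing 3 cm over the soil throughout. Plants stay in a greenhouse 13 to 15 days before visual scoring against controls from 0 (no effect) to 100 (complete control).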

[2] = system: morningglory (Ipomoea spp.); test: Test A pre-/postemergence: morningglory; conditions: for Morningglory plant response rating: Postemergence; for Plant response rating, Morningglory: Preemergence
In short: as §1

[3] = system: barnyardgrass (Echinochloa crus-galli); test: Test B flooded paddy: barnyardgrass; conditions: Flood; 250 g ai/ha; applied to paddy water at 2-leaf stage; visually evaluated after 13 to 15 days
In short: as §2

[4] = system: ducksalad (Heteranthera limosa); test: Test B flooded paddy: ducksalad; conditions: Flood; 250 g ai/ha; applied to paddy water at 2-leaf stage; visually evaluated after 13 to 15 days
In short: as §2

[5] = system: crabgrass, large (large crabgrass, Digitaria sanguinalis); test: Test A pre-/postemergence: crabgrass, large; conditions: for Crabgrass, Large plant response rating: Postemergence; for Plant response rating, Crabgrass, Large: Preemergence
In short: as §1

corn (Zea mays) = test: Test A pre-/postemergence: corn; conditions: for Corn plant response rating: Postemergence; for Plant response rating, Corn: Preemergence
In short: as §1

[6] = system: velvetleaf (Abutilon theophrasti); test: Test A pre-/postemergence: velvetleaf; conditions: for Velvetleaf plant response rating: Postemergence; for Plant response rating, Velvetleaf: Preemergence
In short: as §1

[7] = system: sedge, umbrella (small-flower umbrella sedge Cyperus difformis); test: Test B flooded paddy: sedge, umbrella; conditions: Flood; 250 g ai/ha; applied to paddy water at 2-leaf stage; visually evaluated after 13 to 15 days
In short: as §2

[8] = system: barnyardgrass (Echinochloa crus-galli); test: Test A pre-/postemergence: barnyardgrass; conditions: for Barnyardgrass plant response rating: Postemergence; for Plant response rating, Barnyardgrass: Preemergence
In short: as §1

[9] = system: pigweed (Amaranthus retroflexus); test: Test A pre-/postemergence: pigweed; conditions: for Pigweed plant response rating: Postemergence; for Plant response rating, Pigweed: Preemergence
In short: as §1

[10] = system: foxtail, giant (giant foxtail, Setaria faberii); test: Test A pre-/postemergence: foxtail, giant; conditions: for Foxtail, Giant plant response rating: Postemergence; for Plant response rating, Foxtail, Giant: Preemergence
In short: as §1

[11] = 31 g ai/ha, visual rating on 0 to 100 scale (0 no effect, 100 complete control), approximately ten days
[12] = 125 g ai/ha, 0 to 100 scale, 0 is no effect, 100 is complete control
[13] = 31 g ai/ha, 0 to 100 scale, 0 is no effect, 100 is complete control
[14] = 125 g ai/ha, 0 to 100 scale (0 no effect, 100 complete control)
[15] = 500 g ai/ha, visual rating on 0 to 100 scale (0 no effect, 100 complete control), approximately ten days
[16] = 500 g ai/ha, 0 to 100 scale, 0 is no effect, 100 is complete control

| Compound | Wheat plant response rating [1, 12] | Plant response rating, Wheat [1, 14] | Plant response rating, Rice (0 to 100 scale, 0 is no effect, 100 is complete control) (rice (Oryza sativa)) | Plant response rating, Morningglory [2, 14] | Plant response rating, Barnyardgrass (0 to 100 scale, 0 is no effect, 100 is complete control) [3] | Plant response rating, Ducksalad (0 to 100 scale, 0 is no effect, 100 is complete control) [4] | Crabgrass, Large plant response rating [5, 12] | Plant response rating, Crabgrass, Large [5, 14] | Corn plant response rating (corn (Zea mays); [12]) | Plant response rating, Corn (corn (Zea mays); [14]) | Velvetleaf plant response rating [6, 12] | Plant response rating, Velvetleaf [6, 14] | Plant response rating, Sedge, Umbrella (0 to 100 scale, 0 is no effect, 100 is complete control) [7] | Barnyardgrass plant response rating [8, 12] | Plant response rating, Barnyardgrass [8, 14] | Pigweed plant response rating [9, 12] | Plant response rating, Pigweed [9, 14] | Foxtail, Giant plant response rating [10, 12] | Plant response rating, Foxtail, Giant [10, 14] | Wheat plant response rating [1, 15] | further results |
| --- | --- | --- | --- | --- | --- | --- | --- | --- | --- | --- | --- | --- | --- | --- | --- | --- | --- | --- | --- | --- | --- |
| COc1nn(-c2ccc(F)cc2)nc1Oc1ccnc(C(F)(F)F)c1 [Compound 34] | 0 | 0 | 35 | 0 | 65 | 75 | 20 | 50 | 10 | 0 | 10 | 0 | 90 | 10 | 0 | 80 | 10 | 20 | 30 | – | Wheat plant response rating [1, 11]: 0; Plant response rating, Wheat [1, 13]: 0; Morningglory plant response rating [2, 11]: 20; Morningglory plant response rating [2, 12]: 30; Plant response rating, Morningglory [2, 13]: 0; Crabgrass, Large plant response rating [5, 11]: 10; Plant response rating, Crabgrass, Large [5, 13]: 0; Corn plant response rating (corn (Zea mays); [11]): 10; Plant response rating, Corn (corn (Zea mays); [13]): 0; Velvetleaf plant response rating [6, 11]: 0; Plant response rating, Velvetleaf [6, 13]: 0; Barnyardgrass plant response rating [8, 11]: 0; Plant response rating, Barnyardgrass [8, 13]: 0; Pigweed plant response rating [9, 11]: 20; Plant response rating, Pigweed [9, 13]: 0; Foxtail, Giant plant response rating [10, 11]: 10; Plant response rating, Foxtail, Giant [10, 13]: 0 |
| Cc1nn(-c2ccccc2)nc1C(=O)c1cccc(C(F)(F)F)c1 [Compound 43] | 0 | 0 | 0 | – | 0 | 85 | 30 | 30 | 20 | 0 | 20 | 0 | 100 | 10 | 0 | 50 | 50 | 20 | 20 | 30 | Plant response rating, Wheat [1, 16]: 0; Morningglory plant response rating [2, 12]: 0; Morningglory plant response rating [2, 15]: 40; Crabgrass, Large plant response rating [5, 15]: 40; Plant response rating, Crabgrass, Large [5, 16]: 80; Corn plant response rating (corn (Zea mays); [15]): 30; Plant response rating, Corn (corn (Zea mays); [16]): 10; Velvetleaf plant response rating [6, 15]: 20; Plant response rating, Velvetleaf [6, 16]: 0; Barnyardgrass plant response rating [8, 15]: 20; Plant response rating, Barnyardgrass [8, 16]: 20; Pigweed plant response rating [9, 15]: 70; Plant response rating, Pigweed [9, 16]: 60; Foxtail, Giant plant response rating [10, 15]: 30; Plant response rating, Foxtail, Giant [10, 16]: 90 |
| Cc1nn(-c2ccc(F)cc2)nc1Oc1ccc(F)c(C(F)(F)F)c1 [Compound 56] | 10 | 0 | 40 | 0 | 30 | 80 | 50 | 90 | 10 | 0 | 40 | 0 | 80 | 10 | 0 | 100 | 30 | 20 | 30 | 20 | Plant response rating, Wheat [1, 16]: 10; Plant response rating, Morningglory [2, 16]: 10; Crabgrass, Large plant response rating [5, 15]: 80; Plant response rating, Crabgrass, Large [5, 16]: 100; Corn plant response rating (corn (Zea mays); [15]): 20; Plant response rating, Corn (corn (Zea mays); [16]): 10; Velvetleaf plant response rating [6, 15]: 90; Plant response rating, Velvetleaf [6, 16]: 10; Barnyardgrass plant response rating [8, 15]: 30; Plant response rating, Barnyardgrass [8, 16]: 80; Pigweed plant response rating [9, 15]: 100; Plant response rating, Pigweed [9, 16]: 90; Foxtail, Giant plant response rating [10, 15]: 80; Plant response rating, Foxtail, Giant [10, 16]: 100 |
| Cc1nn(-c2ccc(F)cc2Cl)nc1Cc1ccnc(C(F)(F)F)c1 [Compound 65] | 0 | 0 | 25 | 10 | 30 | 60 | 20 | 30 | 10 | 0 | 30 | 0 | 75 | 10 | 10 | 90 | 80 | 20 | 90 | 20 | Plant response rating, Wheat [1, 16]: 0; Plant response rating, Morningglory [2, 16]: 20; Crabgrass, Large plant response rating [5, 15]: 50; Plant response rating, Crabgrass, Large [5, 16]: 100; Corn plant response rating (corn (Zea mays); [15]): 20; Plant response rating, Corn (corn (Zea mays); [16]): 10; Velvetleaf plant response rating [6, 15]: 60; Plant response rating, Velvetleaf [6, 16]: 10; Barnyardgrass plant response rating [8, 15]: 40; Plant response rating, Barnyardgrass [8, 16]: 70; Pigweed plant response rating [9, 15]: 100; Plant response rating, Pigweed [9, 16]: 100; Foxtail, Giant plant response rating [10, 15]: 70; Plant response rating, Foxtail, Giant [10, 16]: 100 |
